Test results from patent publication US9365576B2, “Pyrrolopyrrolidinone compounds” (Novartis AG, priority 2012, dated 2016).

Target: human MDM2 protein (amino acids 2-188) (Homo sapiens (Human), UniProt Q00987)
Test: TR-FRET assay, p53-MDM2 Assay 2 (modified)
Assay type: binding
Settings: TR-FRET; 0.1 nM MDM2, 0.1 nM Europium labeled streptavidin, Tecan genios Pro reader; read-out: IC50 p53-MDM2 Assay 2
Summary of the method: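 IC50 values were curve-fitted from the time-resolved 665/620 nm emission ratio after 340 nm excitation. The assay combined 0.625 nM europium-streptavidin donor with 1.25 nM C-terminally biotinylated MDM2 2–188 (15 min, RT), followed by 15 min with 10 nM Cy5-labeled p53 18–26 acceptor peptide.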

Sequence of human MDM2 protein (amino acids 2-188) (Q00987 2-188): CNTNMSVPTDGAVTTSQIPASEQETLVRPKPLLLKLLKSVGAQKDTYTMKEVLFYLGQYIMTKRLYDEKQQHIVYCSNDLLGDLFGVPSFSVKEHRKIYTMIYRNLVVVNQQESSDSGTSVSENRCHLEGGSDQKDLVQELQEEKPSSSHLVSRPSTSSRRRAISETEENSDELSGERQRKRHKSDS

SMILES | IC50 [nM]
COc1ncc(-c2cc3c(n2C(C)C)C(c2ccc(C#N)cc2)N(C2CCOCC2)C3=O)c(OC)n1 (stereo not drawn) [Example 157, 4-[2-(2,4-Dimethoxy-pyrimidin-5-yl)-1-isopropyl-4-oxo-5-(tetrahydro-pyran-4-yl)-1,4,5,6-tetrahydro-pyrrolo[3,4-b]pyrrol-6-yl]-benzonitrile] | 7.9
COc1nc(N(C)C)ncc1-c1cc2c(n1C(C)C)C(c1ccc(C#N)cc1)N(C1CCOCC1)C2=O (stereo not drawn) [Example 158, 4-[2-(2-Dimethylamino-4-methoxy-pyrimidin-5-yl)-1-isopropyl-4-oxo-5-(tetrahydro-pyran-4-yl)-1,4,5,6-tetrahydro-pyrrolo[3,4-b]pyrrol-6-yl]-benzonitrile] | 1.34
COc1ncc(-c2cc3c(n2C(C)C)[C@@H](c2ccc(Cl)cc2C)N(c2cc(Cl)c(=O)n(C)c2)C3=O)c(OC)n1 [Example 161, (R)-5-(5-Chloro-1-methyl-6-oxo-1,6-dihydro-pyridin-3-yl)-6-(4-chloro-2-methyl-phenyl)-2-(2,4-dimethoxy-pyrimidin-5-yl)-1-isopropyl-5,6-dihydro-1H-pyrrolo[3,4-b]pyrrol-4-one] | 308
COc1ncc(-c2cc3c(n2C(C)C)[C@](C)(c2ccc(Cl)cc2)N(c2cc(Cl)c(=O)n(C)c2)C3=O)c(OC)n1 [Example 162, (S)-5-(5-Chloro-1-methyl-6-oxo-1,6-dihydro-pyridin-3-yl)-6-(4-chloro-phenyl)-2-(2,4-dimethoxy-pyrimidin-5-yl)-1-isopropyl-6-methyl-5,6-dihydro-1H-pyrrolo[3,4-b]pyrrol-4-one] | 49
COc1ncc(-c2cc3c(n2C(C)C)[C@@](C)(c2ccc(Cl)cc2)N(c2cc(Cl)c(=O)n(C)c2)C3=O)c(OC)n1 [Example 163, (R)-5-(5-Chloro-1-methyl-6-oxo-1,6-dihydro-pyridin-3-yl)-6-(4-chloro-phenyl)-2-(2,4-dimethoxy-pyrimidin-5-yl)-1-isopropyl-6-methyl-5,6-dihydro-1H-pyrrolo[3,4-b]pyrrol-4-one] | 42.7
CNc1ncc(-c2cc3c(n2C(C)C)[C@@H](c2ccc(C#N)cc2)N(c2cc(Cl)cn(C)c2=O)C3=O)c(OC)n1 [Example 166, 4-[(R)-5-(5-Chloro-1-methyl-2-oxo-1,2-dihydro-pyridin-3-yl)-1-isopropyl-2-(4-methoxy-2-methylamino-pyrimidin-5-yl)-4-oxo-1,4,5,6-tetrahydro-pyrrolo[3,4-b]pyrrol-6-yl]-benzonitrile] | 293
COc1nc(N(C)C)ncc1-c1cc2c(n1C(C)C)[C@@H](c1ccc(C#N)cc1)N(c1cc(Cl)c[nH]c1=O)C2=O [Example 168, 4-[(R)-5-(5-Chloro-2-oxo-1,2-dihydro-pyridin-3-yl)-2-(2-dimethylamino-4-methoxy-pyrimidin-5-yl)-1-isopropyl-4-oxo-1,4,5,6-tetrahydro-pyrrolo[3,4-b]pyrrol-6-yl]-benzonitrile] | 107
COc1nc(N(C)C)ncc1-c1cc2c(n1C(C)C)[C@@H](c1ccc(C#N)cc1)N(c1ccc(F)c(Cl)c1)C2=O [Example 170, 4-[(R)-5-(3-Chloro-4-fluoro-phenyl)-2-(2-dimethylamino-4-methoxy-pyrimidin-5-yl)-1-isopropyl-4-oxo-1,4,5,6-tetrahydro-pyrrolo[3,4-b]pyrrol-6-yl]-benzonitrile] | 31.3
COc1nc(N)ncc1-c1cc2c(n1C(C)C)[C@@H](c1ccc(C#N)cc1)N(c1ccc(F)c(Cl)c1)C2=O [Example 172, 4-[(R)-2-(2-Amino-4-methoxy-pyrimidin-5-yl)-5-(3-chloro-4-fluoro-phenyl)-1-isopropyl-4-oxo-1,4,5,6-tetrahydro-pyrrolo[3,4-b]pyrrol-6-yl]-benzonitrile] | 115
COc1ncc(-c2cc3c(n2C(C)C)C(c2ccc(C#N)cc2)N([C@H]2CC[C@H](O)CC2)C3=O)c(OC)n1 (stereo partly drawn) [Example 173, 4-[2-(2,4-Dimethoxy-pyrimidin-5-yl)-5-(trans-4-hydroxy-cyclohexyl)-1-isopropyl-4-oxo-1,4,5,6-tetrahydro-pyrrolo[3,4-b]pyrrol-6-yl]-benzonitrile] | 13.6
COc1nc(N(C)C)ncc1-c1cc2c(n1C(C)C)C(c1ccc(C#N)cc1)N([C@H]1CC[C@H](O)CC1)C2=O (stereo partly drawn) [Example 174, 4-[2-(2-Dimethylamino-4-methoxy-pyrimidin-5-yl)-5-(trans-4-hydroxy-cyclohexyl)-1-isopropyl-4-oxo-1,4,5,6-tetrahydro-pyrrolo[3,4-b]pyrrol-6-yl]-benzonitrile] | 1.67

Stronger by IC50, values ahead:

IC50 [nM] | SMILES
0.699 | COc1nc(N)ncc1-c1cc2c(n1C(C)C)[C@H](c1ccc(C#N)cc1)N(c1ccc(F)c(Cl)c1)C2=O [Example 171, 4-[(S)-2-(2-Amino-4-methoxy-pyrimidin-5-yl)-5-(3-chloro-4-fluoro-phenyl)-1-isopropyl-4-oxo-1,4,5,6-tetrahydro-pyrrolo[3,4-b]pyrrol-6-yl]-benzonitrile]
0.578 | CNc1ncc(-c2cc3c(n2C(C)C)[C@H](c2ccc(C#N)cc2)N(c2cc(Cl)cn(C)c2=O)C3=O)c(OC)n1 [Example 165, 4-[(S)-5-(5-Chloro-1-methyl-2-oxo-1,2-dihydro-pyridin-3-yl)-1-isopropyl-2-(4-methoxy-2-methylamino-pyrimidin-5-yl)-4-oxo-1,4,5,6-tetrahydro-pyrrolo[3,4-b]pyrrol-6-yl]-benzonitrile]
0.357 | COc1nc(N(C)C)ncc1-c1cc2c(n1C(C)C)[C@H](c1ccc(C#N)cc1)N(c1ccc(F)c(Cl)c1)C2=O [Example 169, 4-[(S)-5-(3-Chloro-4-fluoro-phenyl)-2-(2-dimethylamino-4-methoxy-pyrimidin-5-yl)-1-isopropyl-4-oxo-1,4,5,6-tetrahydro-pyrrolo[3,4-b]pyrrol-6-yl]-benzonitrile]
0.161 | COc1nc(N(C)C)ncc1-c1cc2c(n1C(C)C)C(c1ccc(Cl)cc1)N(C1CN(C)C(=O)N(C)C1)C2=O (stereo not drawn) [Example 159, 6-(4-Chloro-phenyl)-2-(2-dimethylamino-4-methoxy-pyrimidin-5-yl)-5-(1,3-dimethyl-2-oxo-hexahydro-pyrimidin-5-yl)-1-isopropyl-5,6-dihydro-1H-pyrrolo[3,4-b]pyrrol-4-one]
0.144 | COc1ncc(-c2cc3c(n2C(C)C)[C@H](c2ccc(Cl)cc2C)N(c2cc(Cl)c(=O)n(C)c2)C3=O)c(OC)n1 [Example 160, (S)-5-(5-Chloro-1-methyl-6-oxo-1,6-dihydro-pyridin-3-yl)-6-(4-chloro-2-methyl-phenyl)-2-(2,4-dimethoxy-pyrimidin-5-yl)-1-isopropyl-5,6-dihydro-1H-pyrrolo[3,4-b]pyrrol-4-one]
0.122 | COc1ncc(-c2cc3c(n2C(C)C)C(c2ccc(Cl)cc2)N(c2cc(Cl)c(=O)n(C)c2F)C3=O)c(OC)n1 (stereo not drawn) [Example 156, 5-(5-Chloro-2-fluoro-1-methyl-6-oxo-1,6-dihydro-pyridin-3-yl)-6-(4-chloro-phenyl)-2-(2,4-dimethoxy-pyrimidin-5-yl)-1-isopropyl-5,6-dihydro-1H-pyrrolo[3,4-b]pyrrol-4-one]
0.121 | COc1nc(N(C)C)ncc1-c1c(C#N)c2c(n1C(C)C)C(c1ccc(Cl)cc1)N(c1cc(Cl)c(=O)n(C)c1)C2=O (stereo not drawn) [Example 164, 5-(5-Chloro-1-methyl-6-oxo-1,6-dihydro-pyridin-3-yl)-6-(4-chloro-phenyl)-2-(2-dimethylamino-4-methoxy-pyrimidin-5-yl)-1-isopropyl-4-oxo-1,4,5,6-tetrahydro-pyrrolo[3,4-b]pyrrole-3-carbonitrile]
